Data published in PubChem BioAssay (NCI).
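1) Cells in 96-well plates. 2) Compound, 48 h, 5 concentrations. 3) Linear interpolation between surrounding doses. 4) Unreached endpoint = highest concentration. Abbreviation: GI50, concentration required for 50% inhibition of growth. Definition used: TGI = concentration required for complete inhibition of growth.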

Experiments:
Assay in all cases: NCI tumour cell line growth inhibition, 48 h
UACC-62 melanoma = system: UACC-62 melanoma
HCT-116 colon = system: HCT-116 colon
K-562 leukemia = system: K-562 leukemia
KM12 colon = system: KM12 colon
PC-3 prostate = system: PC-3 prostate
OVCAR-5 ovarian = system: OVCAR-5 ovarian
SNB-75 CNS = system: SNB-75 CNS
OVCAR-4 ovarian = system: OVCAR-4 ovarian
MDA-N = system: MDA-N
SF-295 CNS = system: SF-295 CNS
M14 melanoma = system: M14 melanoma
HOP-62 NSCLC = system: HOP-62 NSCLC
MOLT-4 leukemia = system: MOLT-4 leukemia
BT-549 breast = system: BT-549 breast

Row | Structure (SMILES) | TGI (UACC-62 melanoma) [µM] | TGI (HCT-116 colon) [µM] | TGI (K-562 leukemia) [µM] | TGI (KM12 colon) [µM] | TGI (PC-3 prostate) [µM] | TGI (OVCAR-5 ovarian) [µM] | TGI (SNB-75 CNS) [µM] | TGI (OVCAR-4 ovarian) [µM] | TGI (MDA-N) [µM] | TGI (SF-295 CNS) [µM] | TGI (M14 melanoma) [µM] | TGI (HOP-62 NSCLC) [µM] | TGI (MOLT-4 leukemia) [µM] | GI50 (K-562 leukemia) [µM] | GI50 (KM12 colon) [µM] | GI50 (OVCAR-5 ovarian) [µM] | GI50 (SF-295 CNS) [µM] | GI50 (HOP-62 NSCLC) [µM] | GI50 (MOLT-4 leukemia) [µM] | TGI (BT-549 breast) [µM]
1 | CSC(=S)Nc1cccc(C)n1 | > 100 | > 100 | > 100 | > 100 | > 100 | > 100 | > 100 | > 100 | > 100 | > 100 | > 100 | > 100 | > 100 |  |  |  |  |  |  | 
2 | CCCCC1(C)C=C/C(=C2/C(=O)O/C(=C\C(=O)O)C2=O)O1 (stereo unspecified) | > 100 | > 100 | > 100 | > 100 |  | > 100 | > 100 | > 100 |  | > 100 | > 100 | > 100 | > 100 |  |  |  |  |  |  | 
3 | C=C1CCC2[C@@H](CCC3[C@]2(C)CCC[C@]3(C)C(=O)OC)C1CC=O (stereo partly specified) | 31.6 | 29.4 | 26.6 | 36.6 |  | 31.8 |  | 32 |  | 31.3 | 30.6 | 39.8 | 29.8 | 8.65 | 18.7 | 16.7 | 16.8 | 21.2 | 11.2 | 
4 | COC(=O)[C@@]1(C(C)CC(=O)O)CCCCC1=O (stereo partly specified) | > 100 | > 100 | > 100 | > 100 |  | > 100 | > 100 | > 100 |  | > 100 | > 100 | > 100 | > 100 |  |  |  |  |  |  | 
5 | C/C=C/C#CC#C/C=C/C=C/C(O)CCO (stereo unspecified) | > 23.1 | > 23.1 | > 23.1 | > 23.1 |  | > 23.1 | > 23.1 | > 23.1 |  | > 23.1 | > 23.1 | > 23.1 | > 23.1 |  |  |  |  |  |  | 
6 | O=C(c1nc2ccccc2[nH]c1=O)C(O)c1ccccc1 (stereo unspecified) | > 100 | > 100 | > 100 | > 100 |  | > 100 |  | > 100 |  | > 100 | > 100 | > 100 | > 100 |  |  |  |  |  |  | 
7 | COc1ccc(CCC2c3cc(OC)c(OC)cc3CCN2C)cc1OC (stereo unspecified) | > 100 | > 100 | > 100 | > 100 |  | > 100 | > 100 | > 100 |  | > 100 | > 100 | > 100 | > 100 |  |  |  |  |  |  | 
8 | O=[N+]([O-])/C(C(Cl)=C(Cl)Cl)=C(/Cl)SCc1ccccc1 | 14.4 | 3.88 | 3.36 | 34.6 | 31.4 | 17.5 | 24.9 | 18.6 | 4.23 | 69.1 | 3.58 | 30 | 1.25 |  |  |  |  |  |  | 
9 | NC(=O)C(=CNC(=S)Nc1ccccc1)C(N)=O | > 100 | > 100 | > 100 | > 100 | > 100 | > 100 | > 100 | > 100 | > 100 | > 100 | > 100 | > 100 | > 100 |  |  |  |  |  |  | 
10 | C[C@]12C[C@@H](OC(=O)[C@]1(C)O)[C@@H]([C@]1(O)CC[C@H]3[C@@H]4C[C@H]5O[C@]56C[C@H]5O[C@H]5C(=O)[C@]6(C)[C@H]4CC[C@@]31C)C2 | > 50 | > 50 | > 50 | > 50 | > 50 | > 50 | > 50 | > 50 | > 50 | > 50 | > 50 | > 50 | > 50 |  |  |  |  |  |  | 
11 | CCN(CC)c1ccc2c(c1)Oc1ccc(N(CC)CC)cc1C21Oc2ccccc2-c2c1c1ccccc1n2CC (stereo unspecified) | > 100 | > 100 | > 100 |  |  |  | > 100 | > 100 |  | > 100 | > 100 |  | > 100 |  |  |  |  |  |  | 
12 | CC1(C)CC(=O)C(/C(=N/NC(=S)NN)C(=O)Nc2nc3ccc([N+](=O)[O-])cc3s2)C(=O)C1 | > 100 | > 100 | > 100 | > 100 |  | > 100 | > 100 | > 100 |  | > 100 | > 100 | > 100 | > 100 |  |  |  |  |  |  | 
13 | COc1ccc(/C=C2\CCC(C)(CN(C)C)C2=O)cc1OC (stereo unspecified) | > 100 | > 100 | > 100 | > 100 |  | > 100 | > 100 | > 100 |  | > 100 | > 100 | > 100 | > 100 |  |  |  |  |  |  | 
14 | CCOC(=O)/C(C#N)=C(O)/C(=C\c1ccc(Br)cc1)NC(=O)c1ccccc1 | > 100 | 34.5 | > 100 | > 100 |  | > 100 | > 100 | > 100 |  | > 100 | > 100 | > 100 | > 100 |  |  |  |  |  |  | 
15 | COC(=O)c1cc2c(c3c1CC(Cc1ccccc1)C3=O)CCC2 (stereo unspecified) | > 100 | > 100 | > 100 | 41.8 | > 100 | > 100 | > 100 | > 100 | > 100 | > 100 | > 100 | > 100 | > 100 |  |  |  |  |  |  | 
16 | CCC1OC2C(CC=C(C)C)=C3OC(C)(O)C(C)(CC)C(OC(C)=O)C3=C3OC(=O)C=C1C32 (stereo unspecified) | 42.1 | 70 | > 100 | 50 | > 100 | 57.9 | 52.1 | 70.5 |  | 42.2 | > 100 | 60.1 | 77.5 |  |  |  |  |  |  | 42.9
17 | O=C(CCC1C(=O)NC(=S)NC1=O)c1ccc2ccccc2c1 | > 100 | > 100 | > 100 | > 100 |  | > 100 | > 100 | > 100 |  | > 100 | > 100 | > 100 | > 100 |  |  |  |  |  |  | 
18 | CN(C)C(=NCc1ccccc1)NC#N | > 100 | > 100 |  | > 100 |  |  |  | > 100 |  | > 100 | > 100 | > 100 |  |  |  |  |  |  |  | 
19 | O=C1Nc2ccccc2N=CC1NC(=O)C(c1ccccc1)c1ccccc1 (stereo unspecified) | > 100 | > 100 | > 100 | > 100 |  | > 100 | > 100 | > 100 |  | > 100 | > 100 | > 100 | > 100 |  |  |  |  |  |  | 
20 | CC1(c2ccccc2Cl)C(C#N)C(=O)NC(=O)C1C#N (stereo unspecified) | > 100 |  | > 100 |  |  | > 100 | 75.4 | > 100 |  | > 100 | > 100 | > 100 | > 100 |  |  |  |  |  |  | 
21 | NC(=O)C(=O)C1CCC2=C(Sc3ccccc3N2)C1=O (stereo unspecified) | > 100 | > 100 | > 100 | > 100 |  | > 100 | > 100 | > 100 |  |  | > 100 | > 100 | > 100 |  |  |  |  |  |  | 
22 | CCOP1(=O)C=C(C)C(Cl)=C(C)C1 (stereo unspecified) | 33.9 | 41.4 | 90.5 | 34.5 |  | > 100 | 69.7 | 90.9 |  | > 100 | 70.9 | > 100 | 76.1 |  |  |  |  |  |  | 
23 | NS(=O)(=O)c1nnc(NS(=O)(=O)C(F)(F)F)s1 | > 100 | > 100 | > 100 | > 100 | > 100 | > 100 | > 100 | > 100 |  | > 100 | > 100 | > 100 | > 100 |  |  |  |  |  |  | > 100
24 | Cc1ccccc1NC(=O)C(=O)C(C#N)c1ccccc1C (stereo unspecified) | > 100 | > 100 | 61.5 | > 100 |  | > 100 | > 100 |  |  | > 100 | > 100 | > 100 | > 100 |  |  |  |  |  |  | 
25 | C/C(=C\CBr)CCC(Br)C(C)(C)Cl (stereo unspecified) | > 100 | > 100 | > 100 | > 100 |  | > 100 | > 100 | > 100 |  | > 100 | > 100 | > 100 | > 100 |  |  |  |  |  |  | 
26 | CC1CN=C(N(Cc2ccccc2)C(=O)Nc2ccc(Cl)c(Cl)c2)S1 (stereo unspecified) |  | > 100 | > 100 | > 100 | > 100 | > 100 | > 100 | > 100 | > 100 | > 10 | 48.8 | > 100 | > 10 |  |  |  |  |  |  | 
27 | COc1ccc(/C(Br)=C2\OC(=O)c3ccccc32)cc1 | > 10 | > 10 | > 10 | > 10 | > 10 | > 10 | > 10 | > 10 | > 10 | > 10 | > 10 | > 10 | > 10 |  |  |  |  |  |  | 
28 | Nc1c([N+](=O)[O-])nc(Cl)c2nncn12 | > 100 | > 63.9 | > 100 | > 100 |  | > 100 | > 77.7 | > 100 |  | > 100 | > 100 | > 100 | > 100 |  |  |  |  |  |  | 
29 | Oc1[nH]c2ccccc2c1N=NC(=S)Nc1ccccc1Cl | 20.6 | 11.8 | 81.4 | 14.9 | > 100 | > 100 | 16.1 | 63.7 | > 100 | 20.9 | 14.9 | 37.9 | 4.95 |  |  |  |  |  |  | 
30 | CC12CCC(=O)N1c1ccc([N+](=O)[O-])cc1N2 (stereo unspecified) | > 100 | > 100 | > 100 | > 100 |  |  | > 100 | > 100 |  | > 100 | > 100 | > 100 | > 100 |  |  |  |  |  |  | 
